US20260262643A1, “HERBICIDAL BENZOXAZINES” (FMC CORPORATION, priority 2022, published 2026)

Experiments:
barnyardgrass [1] = assay: Test C preemergence; format: in vivo, Echinochloa crusgalli
How it was run: (§1)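 Soil-applied (pre) and foliar (post, 1–2 leaf, 2–10 cm) sprays; surfactant-containing non-phytotoxic solvent vehicle; loam/sand substrate. Readout: visual % control at 10 d, greenhouse, versus untreated.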

blackgrass [2] = assay: Test C preemergence; format: in vivo, Alopecurus myosuroides
How it was run: as §1

corn [3] = assay: Test C preemergence; format: in vivo, Zea mays
How it was run: as §1

foxtail, giant [4] = assay: Test C preemergence; format: in vivo, Setaria faberi
Text: (§2) Seeds of plant species selected from barnyardgrass (Echinochloa crusgalli), blackgrass (Alopecurus myosuroides), corn (Zea mays), foxtail, giant (giant foxtail, Setaria faberi), green foxtail (Setaria viridis), goosegrass (Eleusine indica), kochia (Bassia scoparia), oat, wild (wild oat, Avena fatua), pigweed, palmer (palmer amaranth, palmer pigweed, Amaranthus palmeri), Pigweed, Redroot (redroot pigweed, Amaranthus retroflexus), ragweed (common ragweed, Ambrosia artemisiifolia), ryegrass, Italian ([…] ryegrass, Lolium multiflorum), soybean (Glycine max), and wheat (Triticum aestivum) were planted into a blend of loam soil and sand and treated preemergence with a directed soil spray using test chemicals formulated in a non-phytotoxic solvent mixture which included a surfactant. At the same time, plants selected from these crops and weed species and also galium (catchweed bedstraw, Galium aparine) and horseweed (Erigeron canadensis) were planted in pots containing the same blend of loam soil and sand and treated with postemergence applications of test chemicals formulated in the same manner. Plants ranged in height from 2 to 10 cm and were in the one- to two-leaf stage for the postemergence treatment. Treated plants and untreated controls were maintained in a greenhouse for 10 days, after which time all treated plants were compared to untreated controls and visually evaluated for injury. Plant response ratings, summarized in Table C, are based on a 0 to 100 scale where 0 is no effect and 100 is complete control. A dash (-) response means no test result.

kochia [5] = assay: Test C preemergence; format: in vivo, Bassia scoparia
How it was run: as §1

oat, wild [6] = assay: Test C preemergence; format: in vivo, Avena fatua
How it was run: as §1

pigweed, palmer [7] = assay: Test C preemergence; format: in vivo, Amaranthus palmeri
How it was run: as §1

ragweed [8] = assay: Test C preemergence; format: in vivo, Ambrosia artemisiifolia
How it was run: as §1

ryegrass, Italian [9] = assay: Test C preemergence; format: in vivo, Lolium multiflorum
How it was run: as §1

soybean [10] = assay: Test C preemergence; format: in vivo, Glycine max
How it was run: as §1

wheat [11] = assay: Test C preemergence; format: in vivo, Triticum aestivum
How it was run: as §1

barnyardgrass [12] = assay: Test C postemergence; format: in vivo, Echinochloa crusgalli; settings: 10 days, 0 to 100 scale (0 no effect, 100 complete control)
How it was run: as §1

blackgrass [13] = assay: Test C postemergence; format: in vivo, Alopecurus myosuroides; settings: 10 days, 0 to 100 scale (0 no effect, 100 complete control)
How it was run: as §1

corn [14] = assay: Test C postemergence; format: in vivo, Zea mays; settings: 10 days, 0 to 100 scale (0 no effect, 100 complete control)
How it was run: as §1

foxtail, giant [15] = assay: Test C postemergence; format: in vivo, Setaria faberi; settings: 10 days, 0 to 100 scale (0 no effect, 100 complete control)
Text: as §2

kochia [16] = assay: Test C postemergence; format: in vivo, Bassia scoparia; settings: 10 days, 0 to 100 scale (0 no effect, 100 complete control)
How it was run: as §1

oat, wild [17] = assay: Test C postemergence; format: in vivo, Avena fatua; settings: 10 days, 0 to 100 scale (0 no effect, 100 complete control)
How it was run: as §1

pigweed, palmer [18] = assay: Test C postemergence; format: in vivo, Amaranthus palmeri; settings: 10 days, 0 to 100 scale (0 no effect, 100 complete control)
How it was run: as §1

ragweed [19] = assay: Test C postemergence; format: in vivo, Ambrosia artemisiifolia; settings: 10 days, 0 to 100 scale (0 no effect, 100 complete control)
How it was run: as §1

ryegrass, Italian [20] = assay: Test C postemergence; format: in vivo, Lolium multiflorum; settings: 10 days, 0 to 100 scale (0 no effect, 100 complete control)
How it was run: as §1

soybean [21] = assay: Test C postemergence; format: in vivo, Glycine max; settings: 10 days, 0 to 100 scale (0 no effect, 100 complete control)
How it was run: as §1

wheat [22] = assay: Test C postemergence; format: in vivo, Triticum aestivum; settings: 10 days, 0 to 100 scale (0 no effect, 100 complete control)
How it was run: as §1

galium = assay: Test C postemergence; format: in vivo, Galium aparine; settings: 10 days, 0 to 100 scale (0 no effect, 100 complete control)
How it was run: as §1

horseweed = assay: Test C postemergence; format: in vivo, Erigeron canadensis; settings: 10 days, 0 to 100 scale (0 no effect, 100 complete control)
How it was run: as §1

barnyardgrass [23] = assay: Test D flooded paddy test; format: in vivo, Echinochloa crus-galli; settings: 250 g ai/ha, applied to paddy water, visual rating after 13 to 14 days, scale 0 to 100 (0 no effect, 100 complete control)
How it was run: (§3)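 Seedlings reached the 2-leaf stage, then pots were flooded to 3 cm over the soil surface. Compound was applied into the water, depth was maintained, and plants stayed in the greenhouse 13 to 14 days before visual scoring (0–100) relative to controls.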

ducksalad = assay: Test D flooded paddy test; format: in vivo, Heteranthera limosa; settings: 250 g ai/ha, applied to paddy water, visual rating after 13 to 14 days, scale 0 to 100 (0 no effect, 100 complete control)
How it was run: as §3

rice = assay: Test D flooded paddy test; format: in vivo, Oryza sativa; settings: 250 g ai/ha, applied to paddy water, visual rating after 13 to 14 days, scale 0 to 100 (0 no effect, 100 complete control)
How it was run: as §3

sedge, umbrella = assay: Test D flooded paddy test; format: in vivo, Cyperus difformis; settings: 250 g ai/ha, applied to paddy water, visual rating after 13 to 14 days, scale 0 to 100 (0 no effect, 100 complete control)
How it was run: as §3

[24] = 500 g ai/ha, preemergence, 0 to 100 scale (0 no effect, 100 complete control)
[25] = Preemergence, 125 g ai/ha, 0 to 100 scale, 0 no effect, 100 complete control

CC(C)c1ncn(-c2cc(C(=O)N3CC(C(F)(F)F)Oc4c(Cl)cccc43)ccn2)n1 (single isomer, unassigned) [Compound 330]
50: Ragweed plant response rating (ragweed [8]; [24]) | Plant response rating, Barnyardgrass (barnyardgrass [12]; Postemergence, 125 g ai/ha) | Plant response rating, Foxtail, Giant (foxtail, giant [15]; Postemergence, 125 g ai/ha)
0: Plant response rating, Ragweed (ragweed [8]; [25]) | Plant response rating, Horseweed (horseweed; Postemergence, 125 g ai/ha) | Plant response rating, Barnyardgrass (Flood) (barnyardgrass [23]) | Plant response rating, Ducksalad (Flood) (ducksalad) | Plant response rating, Rice (Flood) (rice) | Plant response rating, Sedge, Umbrella (Flood) (sedge, umbrella)
60: Corn plant response rating (corn [3]; [24]) | Oat, Wild plant response rating (oat, wild [6]; [24])
30: Plant response rating, Kochia (kochia [5]; [25]) | Plant response rating, Oat, Wild (oat, wild [6]; [25]) | Wheat plant response rating (wheat [11]; [24]) | Plant response rating, Oat, Wild (oat, wild [17]; Postemergence, 125 g ai/ha) | Plant response rating, Ragweed (ragweed [19]; Postemergence, 125 g ai/ha) | Plant response rating, Wheat (wheat [22]; 500 g ai/ha, postemergence)
90: Blackgrass plant response rating (blackgrass [2]; [24]) | Kochia plant response rating (kochia [5]; [24]) | Plant response rating, Blackgrass (blackgrass [13]; 500 g ai/ha, postemergence) | Plant response rating, Corn (corn [14]; 500 g ai/ha, postemergence) | Plant response rating, Foxtail, Giant (foxtail, giant [15]; 500 g ai/ha, postemergence) | Plant response rating, Ryegrass, Italian (ryegrass, Italian [20]; 500 g ai/ha, postemergence)
40: Plant response rating, Soybean (soybean [10]; [25]) | Plant response rating, Blackgrass (blackgrass [13]; Postemergence, 125 g ai/ha) | Plant response rating, Ragweed (ragweed [19]; 500 g ai/ha, postemergence) | Plant response rating, Ryegrass, Italian (ryegrass, Italian [20]; Postemergence, 125 g ai/ha)
20: Plant response rating, Wheat (wheat [11]; [25]) | Plant response rating, Wheat (wheat [22]; Postemergence, 125 g ai/ha) | Plant response rating, Horseweed (horseweed; 500 g ai/ha, postemergence)
80: Soybean plant response rating (soybean [10]; [24]) | Plant response rating, Kochia (kochia [16]; Postemergence, 125 g ai/ha)
100: Barnyardgrass plant response rating (barnyardgrass [1]; [24]) | Foxtail, Giant plant response rating (foxtail, giant [4]; [24]) | Plant response rating, Foxtail, Giant (foxtail, giant [4]; [25]) | Pigweed, Palmer plant response rating (pigweed, palmer [7]; [24]) | Plant response rating, Pigweed, Palmer (pigweed, palmer [7]; [25]) | Ryegrass, Italian plant response rating (ryegrass, Italian [9]; [24]) | Plant response rating, Ryegrass, Italian (ryegrass, Italian [9]; [25]) | Plant response rating, Kochia (kochia [16]; 500 g ai/ha, postemergence) | Plant response rating, Pigweed, Palmer (pigweed, palmer [18]; 500 g ai/ha, postemergence) | Plant response rating, Soybean (soybean [21]; 500 g ai/ha, postemergence) | Plant response rating, Soybean (soybean [21]; Postemergence, 125 g ai/ha) | Plant response rating, Galium (galium; 500 g ai/ha, postemergence) | Plant response rating, Galium (galium; Postemergence, 125 g ai/ha)
70: Plant response rating, Barnyardgrass (barnyardgrass [1]; [25]) | Plant response rating, Blackgrass (blackgrass [2]; [25]) | Plant response rating, Barnyardgrass (barnyardgrass [12]; 500 g ai/ha, postemergence) | Plant response rating, Corn (corn [14]; Postemergence, 125 g ai/ha) | Plant response rating, Oat, Wild (oat, wild [17]; 500 g ai/ha, postemergence) | Plant response rating, Pigweed, Palmer (pigweed, palmer [18]; Postemergence, 125 g ai/ha)
10: Plant response rating, Corn (corn [3]; [25])
